Data: patent publication US20050020516A1, “Effects of combined administration of farnesyl transferase inhibitors and signal transduction inhibitors” (Whitehead Institute for Biomedical Research, priority 2000, published 2005)

Tests used:
[1] = test system: STI-571 resistant BaF3-BCR/ABL cells; assay: Proliferation in liquid culture, viable cells by dye exclusion; type: cell-based, murine; settings: 0.5 or 1.0 μM STI-571 or increasing concentrations of SCH66336
Procedure: Viable cells were assessed at daily intervals by dye exclusion.

BaF3-BCR/ABL cells = assay: Soft agar colony formation of BaF3-BCR/ABL cells; type: cell-based, murine; settings: Mus musculus, 240 h; BaF3-BCR/ABL cells in soft agar, colonies counted day 10; read-out: IC50, inhibition of soft agar colony number
[2] = test system: parental BaF3-BCR/ABL cells; assay: Caspase-3 immunoblotting (cleavage of procaspase-3); settings: protein lysates of treated cells
Procedure: (§1) Some cells were lysed and subjected to immunoblotting with caspase-3 antibody (FIG. 8A) or analyzed for annexin V staining (FIG. 8B) by FACS using the Apo-Alert kit (Clontech).
Cells were washed in cold PBS and lysed in NP-40 lysis buffer (1% NP-40, 150 mM NaCl, 20 mM Tris (pH 7.4), 10% glycerol, 10 mM NaVO3, 1 mM ZnCl2, 1 mM MgCl2, and 2 mM PMSF). Approximately 50 ug of protein were separated by SDS-PAGE and electrophoretically transferred to nitrocellulose membrane using standard protocols. Membranes were incubated with primary and secondary antibodies in TBST buffer (20 mM Tris-HCl [pH 7.4], 500 mM NaCl, 0.01% Tween 20) containing 5% dry milk. Immunoreactivity was detected by enhanced chemiluminescence.

[3] = test system: STI-571 resistant hematopoietic progenitors from CML patients; assay: Methylcellulose hematopoietic colony assay of primary cells from CML patients relapsed on STI-571; type: cell-based; settings: Homo sapiens, read-out: IC50, colony formation of STI-571 resistant hematopoietic progenitors
Procedure: Numbers are normalized to control (DMSO) and are presented as means +/−S.D. of duplicate plates.
Low density mononucleocytes were isolated from either fresh or cryo-preserved peripheral blood using Lymphoprep (Nycomed, Oslo, Norway). […] All clonogenic assays were performed in duplicate.

[4] = test system: STI-571 sensitive or resistant BCR/ABL positive cell lines (BaF3-BCR/ABL, K562, LAMA-84, AR230); assay: Cell viability by trypan blue dye exclusion; type: cell-based; settings: SCH66336 alone at concentrations up to 5 μM, STI-571 sensitive or resistant cell lines
Procedure: FIGS. 9A-9E are graphs showing that SCH66336 and STI571 in combination induce apoptosis in STI571 resistant cells. […] Viability of cells was assessed at daily intervals by dye exclusion.

[5] = test system: STI-571 resistant K562 cells; assay: Proliferation in liquid culture; type: cell-based, human; settings: STI-571 resistant K562, similar manner as parental line
[6] = test system: STI-571 resistant LAMA84 cells; assay: Proliferation in liquid culture; type: cell-based, human; settings: STI-571 resistant LAMA84, similar manner as parental line
[7] = test system: STI-571 resistant AR230 cells; assay: Proliferation in liquid culture; type: cell-based, human; settings: STI-571 resistant AR230, similar manner as parental line
[8] = test system: parental BaF3-BCR/ABL cells; assay: Apoptosis by annexin V staining (ApoAlert Annexin V kit, FACS); settings: 2.0 uM SCH66336, 48 hours
Procedure: as §1
Apoptosis was measured in cells after incubation with drugs by staining for annexin-positive cells using the ApoAlert Annexin V kit (Clontech, Palo Alto, Calif.). Flow cytometry analysis was performed using Cell Quest (Becton Dickinson, Franklin Lakes, N.J.).

[9] = test system: STI-571 resistant clone of a BaF3-BCR/ABL; assay: Soft agar colony formation of STI-571 resistant BaF3-BCR/ABL clone; settings: STI-571 resistant BaF3-BCR/ABL clone compared with parental cells
Description: Macroscopic colonies were counted in duplicate plates on day 10. In some cases colony numbers were normalized by dividing the number of colonies under a given condition by the number of colonies formed in the presence of no drug (DMSO alone).

IC50 (BaF3-BCR/ABL cells): ~100 nM
IC50 [3]: 250 to 500 nM
SMILES: NC(=O)N1CCC(CC(=O)N2CCC([C@H]3c4ncc(Br)cc4CCc4cc(Cl)cc(Br)c43)CC2)CC1 [SCH66336]
effect on growth / proliferation [1]: dose-dependent inhibition of proliferation
levels of active caspase-3 (immunoblot) [2]: low levels of active caspase-3
effect on cell viability [4]: little effect on cell viability
effect on proliferation [5]: inhibits the proliferation
effect on proliferation [6]: inhibits the proliferation
effect on proliferation [7]: inhibits the proliferation
levels of annexin V staining [8]: Low levels of annexin V staining
effect on soft agar colony formation of STI-571 resistant clone [9]: as sensitive, if not more so
